Results reported in US20260242419A1, “A CYCLIC PEPTIDE FOR TRAPPING INTERLEUKIN-1 BETA” (Merck Sharp & Dohme LLC, priority 2023, published 2026).
Starred links: 1 amine or outer side, 2 acyl side, 3 side chain; linkers in the order of their positions; H or OH if unused. Non-standard residues stand in square brackets, D forms with d. Residues, ends and D or L forms follow the SMILES beside them. Phe(4-(5-CO2H-2-pyrimidyl)) = N[C@@H](Cc1ccc(-c2ncc(C(=O)O)cn2)cc1)C(=O)O; dPro(4R-(4-pyridylmethyl)) = O=C(O)[C@H]1C[C@@H](Cc2ccncc2)CN1; Trp(βS-Me,4-F) = C[C@@H](c1c[nH]c2cccc(F)c12)[C@H](N)C(=O)O; X35 = O=C(O)C12CC(c3ccc(C[C@H](N[*:1])C(=O)[*:2])cc3)(C1)C2; Bip(4'-COOH) = N[C@@H](Cc1ccc(-c2ccc(C(=O)O)cc2)cc1)C(=O)O; Ala(1-bicyclo(1.1.1)pentyl) = N[C@@H](CC12CC(C1)C2)C(=O)O; X21 = O=C(O)c1ccc(-c2ccc(C[C@H](N[*:1])C(=O)[*:2])cn2)cc1; X26 = O=C(O)c1ccc(-c2ncc(C[C@H](N[*:1])C(=O)[*:2])cn2)cc1; dPro(4R-Bzl(4-F)) = O=C(O)[C@H]1C[C@@H](Cc2ccc(F)cc2)CN1; Ala(pyrimidin-5-yl) = N[C@@H](Cc1cncnc1)C(=O)O; Phe(4-COOH) = N[C@@H](Cc1ccc(C(=O)O)cc1)C(=O)O; X36 = O=C(O)c1ccc(C[C@H](N[*:1])C(=O)[*:2])cn1; Pro(cis-4-F) = O=C(O)[C@@H]1C[C@H](F)CN1; AEF = NCCOc1ccc(C[C@H](N)C(=O)O)cc1; 4Pal = N[C@@H](Cc1ccncc1)C(=O)O; αMeS = C[C@](N)(CO)C(=O)O; Dab = NCC[C@H](N)C(=O)O; Dap = NC[C@H](N)C(=O)O; Aib = CC(C)(N)C(=O)O

Target: T1, IL-1β (Homo sapiens, UniProt P01584)
T1 construct: purchased BioLegend 579404
T1 sequence (P01584 117-269): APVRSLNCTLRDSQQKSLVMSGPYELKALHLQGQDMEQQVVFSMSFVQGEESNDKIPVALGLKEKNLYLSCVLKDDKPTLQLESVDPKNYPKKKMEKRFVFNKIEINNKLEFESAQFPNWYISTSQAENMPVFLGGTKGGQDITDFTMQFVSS
Assay: IL-6 assay in MRC5 cells: inhibition of IL-1β induced IL-6 secretion (AlphaLISA)
Format: cell-based
Settings: inhibition of IL-1β induced IL-6 secretion in MRC5 cells; read-out: MRC5 IC50
Method in brief: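 Compound was pre-incubated 1 h at ambient temperature with recombinant human IL-1β at 2λ EC80 before adding human lung fibroblast MRC5 cells (3000/well) in EMEM with 0.025% BSA. After overnight culture at 37 °C, 5% CO2, secreted IL-6 in conditioned medium was measured by AlphaLISA; IC50 from 4-parameter logistic fits.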

Which IC50 does the source give for `C[C@@H](c1c[nH]c2cccc(F)c12)[C@@H]1NC(=O)[C@@H]2C[C@H](F)CN2C(=O)CNC(=O)[C@H](Cc2ccc(C(=O)O)cc2)NC(=O)[C@H](CC23CC(C2)C3)NC(=O)[C@H](Cc2ccc(-c3ncc(C(=O)O)cn3)cc2)NC(=O)[C@H]2C[C@@H](Cc3ccc(F)cc3)CN2C(=O)CNC(=O)[C@H](CCN)NC(=O)[C@H](CCC(N)=O)NC(=O)[C@H](Cc2cncnc2)NC(=O)C(C)(C)NC(=O)[C@H](Cc2c[nH]c3ccccc23)NC(=O)[C@H](CO)NC(=O)C(C)(C)NC1=O` [Example 83] (cyclo([Phe(4-(5-CO2H-2-pyrimidyl))][Ala(1-bicyclo(1.1.1)pentyl)][Phe(4-COOH)]G[Pro(cis-4-F)][Trp(βS-Me,4-F)][Aib]SW[Aib][Ala(pyrimidin-5-yl)]Q[Dab]G[dPro(4R-Bzl(4-F))])) here?
Its IC50 is 0.045 nM.

With `C[C@@H](c1c[nH]c2cccc(F)c12)[C@@H]1NC(=O)[C@@H]2C[C@H](F)CN2C(=O)CNC(=O)[C@H](Cc2ccc(C(=O)O)cc2)NC(=O)[C@H](CC23CC(C2)C3)NC(=O)[C@H](Cc2ccc(-c3ncc(C(=O)O)cn3)cc2)NC(=O)[C@H]2C[C@@H](Cc3ccc(F)cc3)CN2C(=O)CNC(=O)[C@H](CCN)NC(=O)[C@H](CCC(N)=O)NC(=O)[C@H](Cc2ccncc2)NC(=O)C(C)(C)NC(=O)[C@H](Cc2c[nH]c3ccccc23)NC(=O)[C@H](CO)NC(=O)C(C)(C)NC1=O` [Example 84] (cyclo([Phe(4-(5-CO2H-2-pyrimidyl))][Ala(1-bicyclo(1.1.1)pentyl)][Phe(4-COOH)]G[Pro(cis-4-F)][Trp(βS-Me,4-F)][Aib]SW[Aib][4Pal]Q[Dab]G[dPro(4R-Bzl(4-F))])) as the compound, how does the IC50 read?
The IC50 was 0.047 nM.

Which IC50 does the source give for `C[C@@H]1NC(=O)C(C)(C)NC(=O)[C@H]([C@@H](C)c2c[nH]c3cccc(F)c23)NC(=O)[C@@H]2C[C@H](F)CN2C(=O)CNC(=O)[C@H](Cc2ccc(C(=O)O)cc2)NC(=O)[C@H](Cc2ccncc2)NC(=O)[C@H](Cc2ccc(-c3ncc(C(=O)O)cn3)cc2)NC(=O)[C@H]2C[C@@H](Cc3ccncc3)CN2C(=O)CNC(=O)[C@H](CCN)NC(=O)[C@H](CCC(N)=O)NC(=O)[C@H](Cc2ccncc2)NC(=O)C(C)(C)NC(=O)[C@H](Cc2c[nH]c3ccccc23)NC1=O` [Example 85] (cyclo([Phe(4-(5-CO2H-2-pyrimidyl))][4Pal][Phe(4-COOH)]G[Pro(cis-4-F)][Trp(βS-Me,4-F)][Aib]AW[Aib][4Pal]Q[Dab]G[dPro(4R-(4-pyridylmethyl))])) here?
Its IC50 is 0.074 nM.

How did the IC50 turn out when `C[C@@H]1NC(=O)C(C)(C)NC(=O)[C@H]([C@@H](C)c2c[nH]c3cccc(F)c23)NC(=O)[C@@H]2C[C@H](F)CN2C(=O)CNC(=O)[C@H](Cc2ccc(C(=O)O)cc2)NC(=O)[C@H](CC23CC(C2)C3)NC(=O)[C@H](Cc2ccc(-c3ncc(C(=O)O)cn3)cc2)NC(=O)[C@H]2C[C@@H](Cc3ccncc3)CN2C(=O)CNC(=O)[C@H](CCN)NC(=O)[C@H](CCC(N)=O)NC(=O)[C@H](Cc2ccncc2)NC(=O)C(C)(C)NC(=O)[C@H](Cc2c[nH]c3ccccc23)NC1=O` [Example 88] (cyclo([Phe(4-(5-CO2H-2-pyrimidyl))][Ala(1-bicyclo(1.1.1)pentyl)][Phe(4-COOH)]G[Pro(cis-4-F)][Trp(βS-Me,4-F)][Aib]AW[Aib][4Pal]Q[Dab]G[dPro(4R-(4-pyridylmethyl))])) was run?
The IC50 was 0.083 nM.

Which IC50 does the source give for `C[C@@H](c1c[nH]c2cccc(F)c12)[C@@H]1NC(=O)[C@@H]2C[C@H](F)CN2C(=O)CNC(=O)[C@H](Cc2ccc(C(=O)O)cc2)NC(=O)[C@H](CC23CC(C2)C3)NC(=O)[C@H](Cc2ccc(-c3ncc(C(=O)O)cn3)cc2)NC(=O)[C@H]2C[C@@H](Cc3ccncc3)CN2C(=O)CNC(=O)[C@H](CCN)NC(=O)[C@H](CCC(N)=O)NC(=O)[C@H](Cc2ccncc2)NC(=O)C(C)(C)NC(=O)[C@H](Cc2c[nH]c3ccccc23)NC(=O)[C@H](CO)NC(=O)C(C)(C)NC1=O` [Example 89] (cyclo([Phe(4-(5-CO2H-2-pyrimidyl))][Ala(1-bicyclo(1.1.1)pentyl)][Phe(4-COOH)]G[Pro(cis-4-F)][Trp(βS-Me,4-F)][Aib]SW[Aib][4Pal]Q[Dab]G[dPro(4R-(4-pyridylmethyl))])) here?
Its IC50 is 0.045 nM.

With `C[C@@H](c1c[nH]c2cccc(F)c12)[C@@H]1NC(=O)[C@@H]2C[C@H](F)CN2C(=O)CNC(=O)[C@H](Cc2ccc(C(=O)O)cc2)NC(=O)[C@H](Cc2ccncc2)NC(=O)[C@H](Cc2cnc(-c3ccc(C(=O)O)cc3)nc2)NC(=O)[C@H]2C[C@@H](Cc3ccc(F)cc3)CN2C(=O)CNC(=O)[C@H](CCN)NC(=O)[C@H](CCC(N)=O)NC(=O)[C@H](Cc2cncnc2)NC(=O)C(C)(C)NC(=O)[C@H](Cc2c[nH]c3ccccc23)NC(=O)[C@H](CCC(=O)O)NC(=O)C(C)(C)NC1=O` [Example 91] (cyclo([X26][4Pal][Phe(4-COOH)]G[Pro(cis-4-F)][Trp(βS-Me,4-F)][Aib]EW[Aib][Ala(pyrimidin-5-yl)]Q[Dab]G[dPro(4R-Bzl(4-F))])) as the compound, how does the IC50 read?
Its IC50 is 0.054 nM.

Which IC50 does the source give for `C[C@@H](c1c[nH]c2cccc(F)c12)[C@@H]1NC(=O)[C@@H]2C[C@H](F)CN2C(=O)CNC(=O)[C@H](Cc2ccc(C(=O)O)cc2)NC(=O)[C@H](CC23CC(C2)C3)NC(=O)[C@H](Cc2ccc(-c3ccc(C(=O)O)cc3)cc2)NC(=O)[C@H]2C[C@@H](Cc3ccncc3)CN2C(=O)CNC(=O)[C@H](CCN)NC(=O)[C@H](CCC(N)=O)NC(=O)[C@H](CN)NC(=O)C(C)(C)NC(=O)[C@H](Cc2c[nH]c3ccccc23)NC(=O)[C@H](CCC(=O)O)NC(=O)C(C)(C)NC1=O` [Example 93] (cyclo([Bip(4'-COOH)][Ala(1-bicyclo(1.1.1)pentyl)][Phe(4-COOH)]G[Pro(cis-4-F)][Trp(βS-Me,4-F)][Aib]EW[Aib][Dap]Q[Dab]G[dPro(4R-(4-pyridylmethyl))])) here?
The IC50 was 0.059 nM.

Which IC50 does the source give for `CC(=O)NCCOc1ccc(C[C@@H]2NC(=O)[C@H]3C[C@@H](Cc4ccc(F)cc4)CN3C(=O)CNC(=O)[C@H](CCN)NC(=O)[C@H](CCC(N)=O)NC(=O)[C@H](Cc3ccncc3)NC(=O)C(C)(C)NC(=O)[C@H](Cc3c[nH]c4ccccc34)NC(=O)[C@H](CCC(=O)O)NC(=O)C(C)(C)NC(=O)[C@H]([C@@H](C)c3c[nH]c4cccc(F)c34)NC(=O)[C@@H]3C[C@H](F)CN3C(=O)CNC(=O)[C@H](Cc3ccc(C(=O)O)cc3)NC(=O)[C@H](Cc3ccncc3)NC2=O)cc1` [Example 95] (cyclo([AEF](Ac)[4Pal][Phe(4-COOH)]G[Pro(cis-4-F)][Trp(βS-Me,4-F)][Aib]EW[Aib][4Pal]Q[Dab]G[dPro(4R-Bzl(4-F))])) here?
Its IC50 is 0.054 nM.

For `C[C@@H](c1c[nH]c2cccc(F)c12)[C@@H]1NC(=O)[C@@H]2C[C@H](F)CN2C(=O)CNC(=O)[C@H](Cc2ccc(C(=O)O)cc2)NC(=O)[C@H](CC23CC(C2)C3)NC(=O)[C@H](Cc2ccc(-c3ccc(C(=O)O)cc3)cc2)NC(=O)[C@H]2C[C@@H](Cc3ccc(F)cc3)CN2C(=O)CNC(=O)[C@H](CCN)NC(=O)[C@H](CCC(N)=O)NC(=O)[C@H](CO)NC(=O)C(C)(C)NC(=O)[C@H](Cc2c[nH]c3ccccc23)NC(=O)[C@H](CO)NC(=O)[C@](C)(CO)NC1=O` [Example 97] (cyclo([Bip(4'-COOH)][Ala(1-bicyclo(1.1.1)pentyl)][Phe(4-COOH)]G[Pro(cis-4-F)][Trp(βS-Me,4-F)][αMeS]SW[Aib]SQ[Dab]G[dPro(4R-Bzl(4-F))])), which IC50 is on record?
Its IC50 is 0.036 nM.

For `C[C@@H](c1c[nH]c2cccc(F)c12)[C@@H]1NC(=O)[C@@H]2C[C@H](F)CN2C(=O)CNC(=O)[C@H](Cc2ccc(C(=O)O)nc2)NC(=O)[C@H](CC23CC(C2)C3)NC(=O)[C@H](Cc2ccc(-c3ccc(C(=O)O)cc3)cc2)NC(=O)[C@H]2C[C@@H](Cc3ccc(F)cc3)CN2C(=O)CNC(=O)[C@H](CCN)NC(=O)[C@H](CCC(N)=O)NC(=O)[C@H](Cc2cncnc2)NC(=O)C(C)(C)NC(=O)[C@H](Cc2c[nH]c3ccccc23)NC(=O)[C@H](CCC(=O)O)NC(=O)C(C)(C)NC1=O` [Example 98] (cyclo([Bip(4'-COOH)][Ala(1-bicyclo(1.1.1)pentyl)][X36]G[Pro(cis-4-F)][Trp(βS-Me,4-F)][Aib]EW[Aib][Ala(pyrimidin-5-yl)]Q[Dab]G[dPro(4R-Bzl(4-F))])), which IC50 is on record?
The IC50 was 0.058 nM.

`C[C@@H](c1c[nH]c2cccc(F)c12)[C@@H]1NC(=O)[C@@H]2C[C@H](F)CN2C(=O)CNC(=O)[C@H](Cc2ccc(C(=O)O)cc2)NC(=O)[C@H](CC23CC(C2)C3)NC(=O)[C@H](Cc2ccc(C34CC(C(=O)O)(C3)C4)cc2)NC(=O)[C@H]2C[C@@H](Cc3ccc(F)cc3)CN2C(=O)CNC(=O)[C@H](CCN)NC(=O)[C@H](CCC(N)=O)NC(=O)[C@H](Cc2cncnc2)NC(=O)C(C)(C)NC(=O)[C@H](Cc2c[nH]c3ccccc23)NC(=O)[C@H](CCC(=O)O)NC(=O)C(C)(C)NC1=O` [Example 99] (cyclo([Aib]EW[Aib][Ala(pyrimidin-5-yl)]Q[Dab]G[dPro(4R-Bzl(4-F))][X35][Ala(1-bicyclo(1.1.1)pentyl)][Phe(4-COOH)]G[Pro(cis-4-F)][Trp(βS-Me,4-F)])) was tested. Which IC50 did it give?
The IC50 was 0.031 nM.

Which IC50 does the source give for `C[C@@H](c1c[nH]c2cccc(F)c12)[C@@H]1NC(=O)[C@@H]2C[C@H](F)CN2C(=O)CNC(=O)[C@H](Cc2ccc(C(=O)O)cc2)NC(=O)[C@H](CC23CC(C2)C3)NC(=O)[C@H](Cc2ccc(-c3ccc(C(=O)O)cc3)nc2)NC(=O)[C@H]2C[C@@H](Cc3ccc(F)cc3)CN2C(=O)CNC(=O)[C@H](CCN)NC(=O)[C@H](CCC(N)=O)NC(=O)[C@H](CN)NC(=O)C(C)(C)NC(=O)[C@H](Cc2c[nH]c3ccccc23)NC(=O)[C@H](CCC(=O)O)NC(=O)C(C)(C)NC1=O` [Example 100] (cyclo([X21][Ala(1-bicyclo(1.1.1)pentyl)][Phe(4-COOH)]G[Pro(cis-4-F)][Trp(βS-Me,4-F)][Aib]EW[Aib][Dap]Q[Dab]G[dPro(4R-Bzl(4-F))])) here?
Its IC50 is 0.074 nM.
